Assay results: paper PMC3702004, “Comparison of Intake and Systemic Relative Effect Potencies of Dioxin-like Compounds in Female Mice after a Single Oral Dose” (Environmental Health Perspectives, 2013)

Test system: Cyp1b1 mRNA
Test: Cyp1b1 gene expression in liver (real-time PCR)
Format: in vivo, female C57BL/6 mice
Details: female, C57BL/6, mouse, in vivo; single oral dose, day 3; read-out: Maximum induction of hepatic Cyp1b1 mRNA, of the maximal response of TCDD
Description: Animals. Eight-week-old female C57BL/6 mice (Harlan laboratories, Venray, the Netherlands) were randomly assigned to treatment groups (six animals per group) and allowed to acclimate for 1.5 weeks. The animals were housed in groups in standard cages and conditions (23 ± 2°C, 50–60% relative humidity, 12-hr dark/light cycle) with free access to food and water. Mice received a single dose of test compound by oral gavage at a dosing volume of 10 mL/kg body weight (BW). Mice treated with corn oil vehicle (10 mL/kg BW) served as controls. For each congener, five different doses were administered, ranging from 0.5–100 μg/kg BW (TCDD) to 5,000–500,000 µg/kg BW (PCB-153). Detailed information on doses is provided in Supplemental Material, Table S1 (http://dx.doi.org/10.1289/ehp.1206336). On day 3 after dosing, animals were euthanized by CO2/O2 asphyxiation, and blood was immediately collected from the abdominal aorta. The liver, thymus, spleen, and adipose tissue were removed, weighed (liver, thymus, and spleen), snap frozen, and stored at –80°C. All animal treatments were performed with permission of the Animal Ethical Committee (DEC Utrecht) and performed according to the [Law on Animal Experiments (1977)]. Animals were treated humanely and with regard for alleviation of suffering.
RNA isolation and quantitative real-time polymerase chain reaction (PCR). Total RNA was isolated from liver and PBLs using a QIAGEN RNeasy kit (QIAGEN). Purity and concentration of the isolated RNA was determined by measuring the absorbance ratio at 260/280 nm and 230/260 nm with a Nanodrop 2000 spectrophotometer (Thermo Scientific, Asheville, NC, USA). RNA was reverse transcribed to complementary DNA (cDNA) using the iScript cDNA synthesis Kit (Bio-Rad, Veenendaal, the Netherlands). Quantitative real-time PCR analyses were performed using the iQ Real-Time PCR Detection System with SYBR green (Bio-Rad). Amplification reactions were set up with […] containing 12.5 μL iQ SYBR Green Supermix (Bio-rad), 0.5 μL distilled H2O, 1 μL (10 μM) forward primer, 1 μL (10 μM) reverse primer, and 10 μL first strand cDNA (10X diluted). Primer sequences were as follows: Cyp1a1: forward-5´-GGTTAACCATGACCGGGAACT-3´ and reverse-5´-TGCCCAAACCAAAGAGAGTGA-3´ ([Schulz et al. 2012]); Cyp1a2: forward-5´-ACATTCCCAAGGAGCGCTGTATCT-3´ and reverse-5´-GTCGATGGCCGAGTTGTTATTGGT-3´ ([Flaveny et al. 2010]); Cyp1b1: forward-5´-GTGGCTGCTCATCCTCTTTACC-3´ and reverse-5´-CCCACAACCTGGTCCAACTC-3´ ([Berge et al. 2004]); β-actin: forward-5´-ATGCTCCCCGGGCTGTAT-3´ and reverse-5´-CATAGGAGTCCTTCTGACCCATTC-3´ ([Schulz et al. 2012]). All primers were run through the National Center for Biotechnology Information Primer-BLAST database (http://www.ncbi.nlm.nih.gov/tools/primer-blast/) to confirm specificity and validate for optimal annealing temperature (60°C for all primers) and efficiency. The efficiency of all primer pairs was 98–102% (tested at 60°C). The following program was used for denaturation and amplification of cDNA: 3 min at 95°C, followed by 40 cycles of 15 sec at 95°C and 45 sec at 60°C. Gene expression for each sample was expressed as threshold cycle (Ct), normalized to the reference gene β-actin (ΔCt). We calculated fold induction relative to the control group.
Data analysis. We obtained concentration–response curves using a sigmoidal dose–response nonlinear regression curve fit with variable slope (GraphPad Prism 6.01; GraphPad Software Inc., San Diego, CA, USA):
In this Hill equation, y is the dependent variable (EROD activity or fold induction of mRNA levels), x the independent variable (administered or systemic dose), E0 is the estimated background response level, Emax is the maximum response, b is the estimated median effective concentration (EC50), and n is the shaping parameter of the Hill curve.
Using the congener-specific BMR20TCDD concentration, REPs were calculated relatively to TCDD: […]

`Clc1ccc(-c2cc(Cl)c(Cl)cc2Cl)cc1Cl` [PCB-118, 2,3´,4,4´,5-pentachlorobiphenyl] gave an Emax of less than 0.3%.
